The text below walks through data of patent US20190388377A1, “COMPOSITIONS AND METHODS FOR THE TREATMENT OF LIVER DISEASES AND DISORDERS” (AXCELLA HEALTH INC., priority 2018, published 2019).

SMILES strings stand for the structures.

One assay deals with M1 macrophages. As to the kind of experiment: Seahorse XF real-time ATP rate assay in LPS-treated M1 macrophages, Example 6. Type of assay: cell-based, human. The procedure:
Primary human PMBC derived macrophages were seeded on day 0 at 2.0E4 cells per well in a Seahorse […] Cell Culture Microplate V3-PS TC-Treated plate (Agilent) coated with 0.1 mg/mL Poly-D-Lysine (Trevigen) in Dulbecco's Modified Eagle Medium (DMEM) (Gibco) supplemented with penicillin-streptomycin (Gibco) and 10% heat inactivated fetal bovine serum (HI-FBS) (Atlanta Bio) and incubated overnight at 37° C., 5% CO2. On day 1, cells were washed once with 150 uL per well DPBS (Gibco) and treated with 100 uL of: • a. Amino acid free DMEM (US Biologicals) containing a defined custom amino acid concentration based on the mean physiological concentrations in blood based on values published in the Human Metabolome Database (HMDB), with 6 mM glucose, 1 mM sodium pyruvate, 10 mM HEPES (Sigma), and penicillin-streptomycin (Gibco); or • b. The same media described above with supplemental amino acid and amino acid combination treatments at various concentrations. […] Control wells were treated with 0.15 ng/mL LPS, or phosphate buffered saline (PBS). On day 3, the supernatant was collected and immediately frozen in a -80° C. freezer. Cells were analyzed for total ATP production rate, glycolytic ATP production rate, and mitochondrial ATP production rate using a commercially available kit (Agilent Seahorse XF Real-Time ATP Rate Assay Kit) according to manufacturer-supplied protocol on a Seahorse XFe instrument. A custom assay medium (amino acid free DMEM/F12 without phenol red or sodium bicarbonate (US Biologicals) containing a defined custom amino acid concentration based on the mean physiological concentrations in blood based on values published in the Human Metabolome Database (HMDB), with 10 mM XF glucose (Agilent), 1 mM XF pyruvate (Agilent), and 5 mM HEPES (Sigma) was used. Buffer factor for the custom assay medium was determined according to manufacturer-supplied protocol. Following the assay, cells were washed twice with PBS and fixed with 4% paraformaldehyde.

The subject of assay [1] is primary human hepatocytes. As to the kind of experiment: Intracellular triglyceride level after 72 h, colorimetric assay, Example 3. Type of assay: cell-based. The procedure:
On day 2, cells were washed twice with DPBS 1× (Gibco) and maintained in: • a. Amino acid-free WEM (US Biologicals) supplemented with 11 mM Glucose (Sigma), 0.272 mM Sodium Pyruvate (Sigma), 1× P/S (Gibco) and containing a defined custom amino acid concentration based on the mean physiological concentrations in blood (1× HMDB WEM (−) supplemental amino acids); or • b. The same media described above 1×HMDB WEM (+) supplemental amino acids treatment dose at a 30× of HMDB amino acid concentration. Cells were maintained in the defined amino acids media (a. & b.) for 24 hours at 37° C., 5% CO2. Co-Treatment with Free Fatty Acids and Various Amino Acids Supplemental Treatments
After 24 h pre-treatment, cells maintained in the same media (a. & b.) described above 1×HMDB±supplemental amino acids were now exposed to free fatty acids (FFA) at 250 uM with a ratio of 2:1 (Oleate:Palmitate) supplemented with TNF-α (Thermofisher) at 1 ng/ml or vehicle. Cells with the FFAs+TNFα mixture±amino acids treatments were incubated for 72 hours at 37° C., 5% CO2 with a media change after the first 24 hours.
After 72 hours, cells were washed once with cold PBS 1× (Gibco), scrapped off and collected into 75 ul of standard diluent (Cayman). Collected cells were vortexed for 1 min at a 2500 rpm speed followed by two times sonication (Elmasonic sonicator) for 1 min each. Supernatants were collected for triglyceride analysis after centrifugation at 1000 rpm for 10 min at 4° C. Intracellular triglyceride level was assessed using triglyceride colorimetric assay kit (Cayman) and following manufacturer's recommendations. Data was normalized to the total amount of protein using Bicinchoninic Acid Protein Assay Kit (Sigma). Data is reported as median fold change from FFAs+TNFα condition, statistical analysis was done using t-Test.

The next assay relates to Urea. The assay can be described thus: Urea production after 72 h by urea nitrogen (BUN) colorimetric assay, PHH model, Example 2. Type of assay: cell-based, human. The conditions noted are these: FFA+TNFα. As to the method:
PHH from two healthy human donors (Lonza, TRL) were seeded on day 0 at density of 6e04 cells in 96 well optical microplates (Thermofisher) in hepatocyte plating media (William's E medium, WEM) (Gibco) supplemented with 10% heat-inactivated FBS (Atlanta Bio), 2 mM Glutamax (Gibco), and 0.2% Primocin (InVivoGen) and incubated for 6 hours at 37° C., 5% CO2. After 6 hours, cells were washed twice and incubated overnight at 37° C., 5% CO2 with Hepatocytes defined medium (Corning) supplemented with 2 mM Glutamax (Gibco), and 1× Penicillin/Streptomycin. On day 1, cells were washed twice and incubated for 24 h in the hepatocyte culture media in the same conditions described above.
On day 2, cells were washed twice with DPBS 1× (Gibco) to remove excess amino acids and maintained in pretreatment media (1×HMDB, a defined custom amino acid concentration based on the mean physiological concentrations in blood, in WEM±supplemental amino acids): • a. Amino acid-free WEM (US Biologicals) supplemented with 11 mM Glucose (Sigma), 0.272 mM Sodium Pyruvate (Sigma), 1× P/S (Gibco) and containing 1×HMDB with no supplemental amino acids; or • b. The same media described above 1×HMDB WEM with supplemental amino acid and amino acid combination treatments at various concentrations. Cells were maintained in the defined media (a. & b.) for 24 hours at 37° C., 5% CO2. The HMDB values are published in the Human Metabolome Database (Wishart D S, Tzur D, Knox C, et al., HMDB: the Human Metabolome Database. Nucleic Acids Res. 2007 January; 35 (Database issue):D521-6. 17202168; which is hereby incorporated by reference in its entirety). Co-Treatment with Free Fatty Acids and Amino Acids Combination
After 24 h pre-treatment, cells maintained in the pretreatment media±supplemental amino acids (section (a. & b.) described above) were exposed to free fatty acids (FFA) at 250 uM with a ratio of 2:1 (Oleate:Palmitate) supplemented with TNF-α (Thermofisher) at 1 ng/ml. Cells were incubated with the FFAs mixture (FFAs+TNF-α)±supplemental amino acids treatments for 24 hours at 37° C., 5% CO2. After 24 hours incubation, media was removed for cytokine analysis and replaced by fresh media containing the same conditions described above (FFAs mixture±supplemental amino acids treatments). Cells were incubated for an additional 48 hours for a total of 72 hours of FFA and TNF-α stimulation. After 72 hours of incubation, media was removed for albumin and urea analysis and the cells were fixed for nuclei and lipid staining.
Urea was measured as an indicator of hepatocytes functionality by urea nitrogen direct assay (StanBio). Cell supernatant was added to the BUN color reagent and BUN acid reagent at 1(color):2(acid) ratio. Incubate the cell supernatant with BUN reagent for 12 min at 100° C. then for 5 min at 4° C. Read absorbance at 520 nm. Data was normalized to the control. Data is reported as median fold change from control, statistical analysis was done using t-Test.

Setting [2] is: 30× LIRQNacSCar (7.5 mM Nac and Car) or 7.5 mM Nac vs LPS vehicle control.

For the compound `CC(=O)N[C@@H](CS)C(=O)O` [Nac, N-acetylcysteine], in the assay with M1 macrophages (setting [2]), the “glycolytic ATP production rate (in words)” value was “significantly decreased glycolytic, mitochondrial, and total ATP rate measurements”; the “mitochondrial ATP production rate (in words)” value is “significantly decreased glycolytic, mitochondrial, and total ATP rate measurements”; the “total ATP rate (in words)” value is “significantly decreased glycolytic, mitochondrial, and total ATP rate measurements”. For the same compound, in the assay on M1 macrophages (LPS 0.15 ng/mL, 7.5 mM), the “Glycolytic ATP Rate, Median Fold Change from Vehicle (Log2)” value is reported as −0.461 Log2; the “Mitochondrial ATP Rate, Median Fold Change from Vehicle (Log2)” value was −0.196 Log2; the “Total ATP Rate, Median Fold Change from Vehicle (Log2)” value is on record as −0.2744 Log2. Also, in assay [1] (FFA + TNF, 72 h, two donors, AA Conc 1X, Nac/Car 7.5 mM), the “Triglyceride Level relative to the baseline FFA + TNF, Median” value is on record as −1.172. In assay [1] (FFAs+TNFα, two healthy donors), the “triglyceride level (in words)” value is “reduces triglyceride level but the effect was less pronounced than the combinations described previously”. The “urea production (in words)” value in the assay on Urea (hepatocyte donor 1) was “No changes in urea production”. In the assay with Urea (hepatocyte donor 2), the “urea production (in words)” value was “slightly induce urea production”.
